Like-named read-outs stand apart in the source and are kept apart here.
Key:
[1] = molecular target: KDR kinase (Seq ID No. 3) (Homo sapiens, UniProt P35968, DEL940-989/E990V); experiment: KDR Kinase Assay (assays K1, K2, K3); type: biochemical; details: assay variant K1, K2 or K3 not stated; read-out: KDR Enzyme Assay
[2] = molecular target: T1, PDGFRα kinase (Homo sapiens, UniProt P16234); experiment: PDGFRα Kinase Assay; type: biochemical; details: read-out: PDGFRa Enzyme Assay
T1 construct: purchased Invitrogen
T1 sequence (P16234 24-1089): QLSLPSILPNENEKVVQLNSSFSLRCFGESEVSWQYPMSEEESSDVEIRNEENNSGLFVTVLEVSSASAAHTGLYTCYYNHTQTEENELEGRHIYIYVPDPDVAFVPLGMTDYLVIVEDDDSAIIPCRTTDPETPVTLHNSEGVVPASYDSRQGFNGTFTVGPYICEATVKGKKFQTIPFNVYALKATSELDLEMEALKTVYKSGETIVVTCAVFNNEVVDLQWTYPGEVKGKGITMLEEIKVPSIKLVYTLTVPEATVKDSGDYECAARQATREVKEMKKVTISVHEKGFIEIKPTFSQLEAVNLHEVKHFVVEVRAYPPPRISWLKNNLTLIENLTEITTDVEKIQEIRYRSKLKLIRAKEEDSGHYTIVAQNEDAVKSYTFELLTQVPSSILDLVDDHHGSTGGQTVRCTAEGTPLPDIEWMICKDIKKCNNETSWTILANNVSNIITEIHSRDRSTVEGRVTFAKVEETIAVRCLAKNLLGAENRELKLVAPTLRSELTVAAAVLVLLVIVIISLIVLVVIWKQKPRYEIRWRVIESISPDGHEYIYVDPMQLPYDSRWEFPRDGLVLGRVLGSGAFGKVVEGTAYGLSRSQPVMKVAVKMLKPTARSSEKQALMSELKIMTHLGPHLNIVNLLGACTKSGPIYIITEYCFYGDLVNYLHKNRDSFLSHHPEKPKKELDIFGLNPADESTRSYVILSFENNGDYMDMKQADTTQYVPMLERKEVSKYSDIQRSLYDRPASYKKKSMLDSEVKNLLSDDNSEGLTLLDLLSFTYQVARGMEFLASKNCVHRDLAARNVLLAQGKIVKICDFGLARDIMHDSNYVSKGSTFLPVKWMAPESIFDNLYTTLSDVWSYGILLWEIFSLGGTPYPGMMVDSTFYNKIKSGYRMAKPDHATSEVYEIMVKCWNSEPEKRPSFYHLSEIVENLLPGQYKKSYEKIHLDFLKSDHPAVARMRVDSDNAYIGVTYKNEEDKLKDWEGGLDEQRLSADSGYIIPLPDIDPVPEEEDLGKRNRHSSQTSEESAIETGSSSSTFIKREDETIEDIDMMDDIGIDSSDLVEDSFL
Description: (§1) Activity of PDGFRα kinase was determined by following the production of ADP from the kinase reaction through coupling with the pyruvate kinase/lactate dehydrogenase system. In this assay, the oxidation of NADH (thus the decrease at A340 nm) was continuously monitored spectrophometrically. The reaction mixture (100 μl) contained PDGFRα (Invitrogen, 10 nM), polyE4Y (1 mg/ml), MgCl2 (10 mM), pyruvate kinase (4 units), lactate dehydrogenase (0.7 units), phosphoenol pyruvate (1 mM) and NADH (0.28 mM) and ATP (500 μM) in a 90 mM Tris buffer containing 0.2% octyl-glucoside and 1% DMSO, pH 7.5. The inhibition reaction was started by mixing serial diluted test compound with the above reaction mixture. The absorption at 340 nm was monitored continuously for 4 hours at 30° C. on a Polarstar Optima or Synergy 2 plate reader. The reaction rate was calculated using the 2 to 3 h time frame. Percent inhibition was obtained by comparison of reaction rate with that of a control (i.e. with no test compound). IC50 values were calculated from a series of percent inhibition values determined at a range of inhibitor concentrations using software routines as implemented in the GraphPad Prism software package.

[3] = system: EBC-1 cells; experiment: EBC-1 Cell Proliferation Assay (resazurin); type: cell-based; details: 67 h + 5 h resazurin, read-out: EBC1 Cell Proliferation
Description: EBC-1 cells (catalog #JCRB0820) were obtained from the Japan Health Science Research Resources Bank, Osaka, Japan. Briefly, cells were grown in DMEM supplemented with 10% characterized fetal bovine serum (Invitrogen, Carlsbad, Calif.) at 37 degrees Celsius, 5% CO2, 95% humidity. Cells were allowed to expand until reaching 70-95% confluency at which point they were subcultured or harvested for assay use.
EBC-1 Cell Proliferation Assay
(§2) A serial dilution of test compound was dispensed into a 96-well black clear bottom plate (Corning, Corning, N.Y.). For each cell line, five thousand cells were added per well in 200 μL complete growth medium. Plates were incubated for 67 hours at 37 degrees Celsius, 5% CO2, 95% humidity. […] Data was analyzed using Prism software (Graphpad, San Diego, Calif.) to calculate IC50 values.

[4] = molecular target: T2, c-MET kinase (Seq. ID no. 2) (Homo sapiens, UniProt P08581); experiment: c-MET Kinase Assay (ADP production, pyruvate kinase/lactate dehydrogenase coupled); type: biochemical; details: read-out: cMET Enzyme Assay
T2 construct: purchased Invitrogen PV3143
T2 sequence (P08581 with tags, fused parts or gaps): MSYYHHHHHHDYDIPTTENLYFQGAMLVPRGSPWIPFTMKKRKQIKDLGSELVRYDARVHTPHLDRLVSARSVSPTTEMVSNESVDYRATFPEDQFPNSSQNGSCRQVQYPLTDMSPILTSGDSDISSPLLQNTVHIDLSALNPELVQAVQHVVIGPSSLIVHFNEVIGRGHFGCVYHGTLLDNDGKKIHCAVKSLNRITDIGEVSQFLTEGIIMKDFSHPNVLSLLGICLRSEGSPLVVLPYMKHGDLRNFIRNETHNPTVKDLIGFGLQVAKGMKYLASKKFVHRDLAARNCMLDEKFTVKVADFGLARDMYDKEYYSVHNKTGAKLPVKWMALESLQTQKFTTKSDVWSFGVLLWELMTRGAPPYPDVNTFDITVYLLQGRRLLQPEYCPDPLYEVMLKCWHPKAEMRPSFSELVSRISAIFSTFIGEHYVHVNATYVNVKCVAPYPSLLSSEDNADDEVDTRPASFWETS
Description: In this assay, the oxidation of NADH (thus the decrease at A340 nm) was continuously monitored spectrophometrically. […] Test compounds were incubated with C-Met (Seq. ID no. 2) and other reaction reagents at 22° C. for 0.5 h before ATP (100 μM) was added to start the reaction. The absorption at 340 nm was monitored continuously for 2 hours at 30° C. on Polarstar Optima plate reader (BMG). The reaction rate was calculated using the 1.0 to 2.0 h time frame. Percent inhibition was obtained by comparison of reaction rate with that of a control (i.e. with no test compound). IC50 values were calculated from a series of percent inhibition values determined at a range of inhibitor concentrations using software routines as implemented in the GraphPad Prism software package.

[5] = molecular target: T3, FMS kinase (Homo sapiens, UniProt P07333); experiment: FMS Kinase Assay; type: biochemical; details: read-out: FMS Enzyme Assay
T3 construct: purchased Invitrogen or Millipore
T3 sequence (P07333 20-972): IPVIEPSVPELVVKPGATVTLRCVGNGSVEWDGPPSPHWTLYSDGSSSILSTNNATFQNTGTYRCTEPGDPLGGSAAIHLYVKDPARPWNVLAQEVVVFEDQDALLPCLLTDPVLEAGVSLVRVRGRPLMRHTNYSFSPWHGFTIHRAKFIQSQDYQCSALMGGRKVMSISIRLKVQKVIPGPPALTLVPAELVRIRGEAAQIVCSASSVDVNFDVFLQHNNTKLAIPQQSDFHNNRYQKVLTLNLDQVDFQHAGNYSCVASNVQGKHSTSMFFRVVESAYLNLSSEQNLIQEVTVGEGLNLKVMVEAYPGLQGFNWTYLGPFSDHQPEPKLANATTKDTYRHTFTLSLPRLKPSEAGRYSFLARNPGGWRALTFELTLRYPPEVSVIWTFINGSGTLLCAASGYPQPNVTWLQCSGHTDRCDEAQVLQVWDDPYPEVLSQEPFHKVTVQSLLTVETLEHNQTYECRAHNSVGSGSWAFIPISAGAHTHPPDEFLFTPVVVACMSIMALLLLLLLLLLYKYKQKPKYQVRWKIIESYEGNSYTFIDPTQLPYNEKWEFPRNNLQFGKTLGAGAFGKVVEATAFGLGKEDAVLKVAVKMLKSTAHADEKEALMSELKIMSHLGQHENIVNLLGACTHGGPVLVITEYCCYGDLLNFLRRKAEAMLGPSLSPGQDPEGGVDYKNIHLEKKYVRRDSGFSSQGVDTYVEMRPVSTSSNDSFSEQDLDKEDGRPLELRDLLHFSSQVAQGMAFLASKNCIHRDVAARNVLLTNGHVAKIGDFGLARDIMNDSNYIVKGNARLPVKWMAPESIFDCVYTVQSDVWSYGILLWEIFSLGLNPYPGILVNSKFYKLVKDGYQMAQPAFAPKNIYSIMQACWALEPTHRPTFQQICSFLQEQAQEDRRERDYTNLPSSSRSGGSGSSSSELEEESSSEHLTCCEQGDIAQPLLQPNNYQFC
Description: as §1, with “In” for “Activity of PDGFRα kinase was determined by following the production of ADP from the kinase reaction through coupling with the pyruvate kinase/lactate dehydrogenase system. In”, “FMS (purchased from Invitrogen or Millipore, 6” for “PDGFRα (Invitrogen, 10”

[6] = molecular target: T4, c-KIT kinase (Seq. ID no. 1) (Homo sapiens, UniProt P10721); experiment: c-KIT kinase Assay (ADP production, pyruvate kinase/lactate dehydrogenase coupled); type: biochemical; details: read-out: cKIT Enzyme Assay
T4 construct: purchased ProQinase
T4 sequence (P10721 with tags, fused parts or gaps): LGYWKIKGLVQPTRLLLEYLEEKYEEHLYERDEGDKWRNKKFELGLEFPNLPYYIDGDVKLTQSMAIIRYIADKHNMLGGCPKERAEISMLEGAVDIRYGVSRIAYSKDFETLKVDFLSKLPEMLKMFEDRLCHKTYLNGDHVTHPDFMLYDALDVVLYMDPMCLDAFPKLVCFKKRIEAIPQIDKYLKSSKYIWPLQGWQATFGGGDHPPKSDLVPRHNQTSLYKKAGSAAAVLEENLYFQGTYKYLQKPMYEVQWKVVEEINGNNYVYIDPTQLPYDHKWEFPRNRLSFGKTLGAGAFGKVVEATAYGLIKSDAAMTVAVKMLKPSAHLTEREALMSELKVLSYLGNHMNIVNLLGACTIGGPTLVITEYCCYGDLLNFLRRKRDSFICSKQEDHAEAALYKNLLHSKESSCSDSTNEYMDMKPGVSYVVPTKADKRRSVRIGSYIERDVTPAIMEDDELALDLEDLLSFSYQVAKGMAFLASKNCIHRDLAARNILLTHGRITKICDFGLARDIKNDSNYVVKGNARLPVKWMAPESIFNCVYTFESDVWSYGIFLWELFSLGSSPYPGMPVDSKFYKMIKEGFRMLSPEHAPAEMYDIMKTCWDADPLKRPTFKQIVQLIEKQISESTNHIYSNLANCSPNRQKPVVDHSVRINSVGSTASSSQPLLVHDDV
Description: In this assay, the oxidation of NADH (thus the decrease at A340 nm) was continuously monitored spectrophometrically. […] The absorption at 340 nm was monitored continuously for 0.5 hours at 30° C. on Polarstar Optima plate reader (BMG). The reaction rate was calculated using the 0 to 0.5 h time frame. Percent inhibition was obtained by comparison of reaction rate with that of a control (i.e. with no test compound). IC50 values were calculated from a series of percent inhibition values determined at a range of inhibitor concentrations using software routines as implemented in the GraphPad Prism software package.

[7] = molecular target: T5, PDGFRβ (Homo sapiens, UniProt P09619); experiment: PDGFRβ Kinase Assay; type: biochemical; details: read-out: PDGFRb Enzyme Assay
T5 construct: purchased Invitrogen
T5 sequence (P09619 33-1106): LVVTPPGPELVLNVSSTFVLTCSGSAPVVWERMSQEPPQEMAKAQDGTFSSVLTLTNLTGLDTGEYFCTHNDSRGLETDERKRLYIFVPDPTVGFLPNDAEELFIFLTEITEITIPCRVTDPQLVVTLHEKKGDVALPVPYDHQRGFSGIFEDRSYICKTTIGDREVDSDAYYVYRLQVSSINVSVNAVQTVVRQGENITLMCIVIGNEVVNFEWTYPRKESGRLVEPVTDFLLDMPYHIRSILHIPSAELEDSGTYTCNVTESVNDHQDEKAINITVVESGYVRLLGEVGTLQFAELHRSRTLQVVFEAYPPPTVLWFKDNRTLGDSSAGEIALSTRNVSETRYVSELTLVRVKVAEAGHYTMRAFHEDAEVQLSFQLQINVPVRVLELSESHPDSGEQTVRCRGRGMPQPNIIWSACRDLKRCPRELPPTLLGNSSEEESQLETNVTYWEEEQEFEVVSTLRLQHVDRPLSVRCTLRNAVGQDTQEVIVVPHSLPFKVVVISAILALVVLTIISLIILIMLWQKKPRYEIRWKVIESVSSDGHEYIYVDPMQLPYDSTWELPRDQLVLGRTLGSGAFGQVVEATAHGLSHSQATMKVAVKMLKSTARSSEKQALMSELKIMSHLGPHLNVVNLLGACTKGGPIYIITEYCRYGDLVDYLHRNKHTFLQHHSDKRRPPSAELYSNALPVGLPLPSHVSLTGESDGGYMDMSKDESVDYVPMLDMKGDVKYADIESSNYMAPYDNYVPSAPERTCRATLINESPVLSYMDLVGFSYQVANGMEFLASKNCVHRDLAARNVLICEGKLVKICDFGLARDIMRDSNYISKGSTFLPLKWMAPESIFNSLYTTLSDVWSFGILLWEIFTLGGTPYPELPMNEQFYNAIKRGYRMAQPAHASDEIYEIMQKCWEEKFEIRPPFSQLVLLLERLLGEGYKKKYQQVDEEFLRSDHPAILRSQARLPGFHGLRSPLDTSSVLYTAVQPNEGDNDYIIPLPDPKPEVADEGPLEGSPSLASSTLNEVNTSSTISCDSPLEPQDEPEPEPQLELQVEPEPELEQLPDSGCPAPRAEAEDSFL

[8] = molecular target: T6, phospho-VEGF R2 (Homo sapiens, UniProt P35968); experiment: HUVEC VEGF/KDR ELISA (phospho-VEGF R2 after VEGF stimulation); type: cell-based; details: 4 h compound, 100 ng/mL VEGF 5 min, read-out: HUVEC pKDR
T6 construct: host or cells: HUVEC
Description: HUVEC (Human umbilical vein endothelial cell) cells were obtained from Lonza (Lonza, Walkersville, Md.). Briefly, cells were grown in EGM-2 (Lonza, Walkersville, Md.) at 37 degrees Celsius, 5% CO2, 95% humidity. Cells were allowed to expand until reaching 90-95% saturation at which point they were subcultured or harvested for assay use. For assay use, cells were harvested and grown in EGM-2 medium supplemented with 2% FBS (Lonza, Walkersville, Md.).
Twenty-five thousand cells were added per well in a 96-well black clear bottom plate (Corning, Corning, N.Y.). Cells were then incubated overnight at 37 degrees Celsius, 5% CO2, 95% humidity. A serial dilution of test compound was dispensed into another 96-well black clear bottom plate (Corning, Corning, N.Y.) containing EBM-2 supplemented with 2% FBS. Compound was added to plates containing cells and incubated for 4 hours at 37 degrees Celsius, 5% CO2, 95% humidity. Cells were stimulated with 100 ng/mL VEGF (R&D Systems, Minneapolis, Minn.) for 5 minutes, then lysed. Cell lysates were used to detect phospho-VEGF R2 using DuoSet IC HUVEC VEGF/KDR ELISA (R&D Systems, Minneapolis, Minn.). Data was analyzed using Prism software (Graphpad, San Diego, Calif.) to calculate IC50's.

[9] = molecular target: T7, Mo-7e pKIT (Homo sapiens, UniProt P10721); experiment: Mo-7e pKIT cellular assay; type: cell-based; details: Mo-7e cells
T7 construct: endogenous in cells; host or cells: Mo-7e

[10] = system: M-NFS-60 cells; experiment: M-NFS-60 Cell Proliferation Assay (resazurin); type: cell-based; details: 67 h + 5 h resazurin
Description: Cells were allowed to expand until reaching saturation at which point they were subcultured or harvested for assay use.
M-NFS-60 Cell Proliferation Assay
as §2, with “384-well” for “96-well”, “Two thousand” for “For each cell line,”, “hundred” for “thousand”, “50” for “200”, “CO2, and” for “CO2,”

Sequence of KDR kinase (Seq ID No. 3) (P35968 with tags, fused parts or gaps DEL940-989/E990V): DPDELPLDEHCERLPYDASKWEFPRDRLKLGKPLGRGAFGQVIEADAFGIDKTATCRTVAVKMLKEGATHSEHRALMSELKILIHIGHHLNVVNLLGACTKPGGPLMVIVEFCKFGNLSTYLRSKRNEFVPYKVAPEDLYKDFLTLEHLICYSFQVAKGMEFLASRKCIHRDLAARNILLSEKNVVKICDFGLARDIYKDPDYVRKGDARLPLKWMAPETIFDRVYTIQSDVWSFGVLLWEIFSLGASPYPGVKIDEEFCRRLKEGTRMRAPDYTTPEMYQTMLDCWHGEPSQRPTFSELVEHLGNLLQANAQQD

| Molecule | IC50 [1] [nM] | IC50 [2] [nM] | IC50 [4] [nM] | IC50 [5] [nM] | IC50 [6] [nM] | IC50 [7] [nM] | IC50 [9] [nM] | IC50 ([3]; Homo sapiens) [nM] | IC50 [3] [nM] | IC50 [8] [nM] | IC50 [10] [nM] |
| --- | --- | --- | --- | --- | --- | --- | --- | --- | --- | --- | --- |
| Cn1cc(-c2cc(Oc3ccc(NC(=O)C4(C(=O)Nc5ccc(Cl)cc5)CC4)c(F)c3)ccn2)cn1 [Example 22, N-(4-chlorophenyl)-N′-(2-fluoro-4-(2-(1-methyl-1H-pyrazol-4-yl)pyridin-4-yloxy)phenyl)cyclopropane-1,1-dicarboxamide] | < 2000 | < 2000 | < 2000 | < 200 | < 2000 | < 2000 | – | < 2000 | – | – | – |
| N-(2,5-difluoro-4-(2-(1-methyl-1H-pyrazol-4-yl)pyridin-4-yloxy)phenyl)-N-(4-fluorophenyl)cyclopropane-1,1-dicarboxamide [Example 40] | < 200 | < 2000 | < 200 | – | < 200 | < 10000 | – | – | < 200 | < 2000 | – |
| Cn1cc(-c2cc(Oc3cc(F)c(NC(=O)C4(C(=O)Nc5ccccc5)CC4)cc3F)ccn2)cn1 [Example 45, N-(2,5-difluoro-4-(2-(1-methyl-1H-pyrazol-4-yl)pyridin-4-yloxy)phenyl)-N′-phenylcyclopropane-1,1-dicarboxamide] | < 2000 | < 10000 | < 200 | – | < 200 | < 10000 | < 200 | < 200 | – | – | – |
| Cn1cc(-c2cc(Oc3ccc(NC(=O)C4(C(=O)Nc5ccc(F)cc5)CC4)nc3)ccn2)cn1 [Example 41, N-(4-fluorophenyl)-N′-(5-(2-(1-methyl-1,4-pyrazol-4-yl)pyridin-4-yloxy)pyridin-2-yl)cyclopropane-1,1-dicarboxamide] | < 2000 | < 2000 | < 2000 | < 200 | < 2000 | < 10000 | – | – | – | – | < 10000 |

More lines, main results first:

| IC50 [1] [nM] | IC50 [2] [nM] | IC50 [4] [nM] | IC50 [5] [nM] | IC50 [6] [nM] | IC50 [7] [nM] | IC50 [9] [nM] | Molecule | IC50 ([3]; Homo sapiens) [nM] | IC50 [3] [nM] | IC50 [8] [nM] | IC50 [10] [nM] |
| --- | --- | --- | --- | --- | --- | --- | --- | --- | --- | --- | --- |
| < 10000 | < 10000 | < 2000 | < 2000 | < 10000 | < 10000 | – | Cc1ccc(NC(=O)C2(C(=O)Nc3ccc(Oc4ccnc(-c5cnn(C)c5)c4)cc3F)CC2)cc1 [Example 23, N-(2-fluoro-4-(2-(1-methyl-1H-pyrazol-4-yl)pyridin-4-yloxy)phenyl)-N′-p-tolylcyclopropane-1,1-dicarboxamide] | < 2000 | – | – | – |
| < 2000 | < 2000 | – | < 200 | < 10000 | < 10000 | – | Cn1cc(-c2cc(Oc3ccc(NC(=O)C4(C(=O)Nc5ccc(F)cc5)CC4)c(F)c3)ccn2)cn1 [Example 7, N-(2-fluoro-4-(2-(1-methyl-1H-pyrazol-4-yl)pyridin-4-yloxy)phenyl)-N′-(4-fluorophenyl)cyclopropane-1,1-dicarboxamide] | < 200 | – | < 2000 | – |
| < 2000 | < 2000 | < 200 | < 200 | < 200 | < 2000 | – | Cc1cc(NC(=O)C2(C(=O)Nc3ccc(F)cc3)CC2)c(F)cc1Oc1ccnc(-c2cnn(C)c2)c1 [Example 51, N-(2-fluoro-5-methyl-4-(2-(1-methyl-1H-pyrazol-4-yl)pyridin-4-yloxy)phenyl)-N′-(4-fluorophenyl)cyclopropane-1,1-dicarboxamide] | < 2000 | – | – | – |
| < 10000 | < 200 | < 200 | – | < 200 | < 10000 | < 2000 | Cn1cc(-c2cc(Oc3cc(F)c(NC(=O)NC(=O)Cc4ccc(F)cc4)cc3F)ccn2)cn1 [Example 42, 1-(2,5-difluoro-4-(2-(1-methyl-1H-pyrazol-4-yl)pyridin-4-yloxy)phenyl)-3-(2-(4-fluorophenyl)acetyl)urea] | < 200 | – | – | – |
| < 2000 | < 10000 | < 200 | < 2000 | < 200 | < 10000 | – | Cc1nn(C)cc1-c1cc(Oc2cc(F)c(NC(=O)C3(C(=O)Nc4ccc(F)cc4)CC3)cc2F)ccn1 [Example 49, N-(4-(2-(1,3-Dimethyl-1H-pyrazol-4-yl)pyridin-4-yloxy)-2,5-difluorophenyl)-N′-(4-fluorophenyl)cyclopropane-1,1-dicarboxamide] | < 2000 | – | – | – |

— US8486951B2 (Deciphera Pharmaceuticals, LLC, priority 2008, dated 2013)
